Experimental data: patent US9302999B2, “Substituted triazoles as herbicides” (E. I. DU PONT DE NEMOURS AND COMPANY, priority 2012, dated 2016)

Experiments:
Type in all cases: in vivo
[1] = tested on: poinsettia, wild (wild poinsettia, Euphorbia heterophylla); assay: Test E pre-/postemergence: poinsettia, wild; conditions: scale 0 to 100
Description: (§1) Seeds of plant species selected from corn (Zea mays), soybean (Glycine max), velvetleaf (Abutilon theophrasti), lambsquarters (Chenopodium album), poinsettia, wild (wild poinsettia, Euphorbia heterophylla), pigweed, palmer (palmer pigweed, Amaranthus palmeri), waterhemp (common waterhemp, Amaranthus rudis), smartweed (ladysthumb smartweed, Polygonum persicaria), surinam grass (Brachiaria decumbens), crabgrass, large (large crabgrass, Digitaria sanguinalis), crabgrass, Brazil (Brazilian crabgrass, Digitaria horizontalis), panicum, fall (fall panicum, Panicum dichotomiflorum), foxtail, giant (giant foxtail, Setaria faberii), foxtail, green (green foxtail, Setaria viridis), goosegrass (Eleusine indica), johnsongrass (Sorghum halepense), ragweed (common ragweed, Ambrosia elation), barnyardgrass (Echinochloa crus-galli), sandbur (southern sandbur, Cenchrus echinatus), arrowleaf sida (Sida rhombifolia), ryegrass, Italian (Italian ryegrass, Lolium multiflorum), dayflower, (VA) (Virginia dayflower, Commelina virginica), field bindweed (Convolvulus arvensis), cocklebur (common cocklebur, Xanthium strumarium), morningglory (Ipomoea coccinea), nightshade (eastern black nightshade, Solanum ptycanthum), kochia (Kochia scoparia), nutsedge, yellow (yellow nutsedge, Cyperus esculentus) and beggarticks (hairy beggarticks, Bidens pilosa) were planted into a silt loam soil and treated preemergence with test chemicals formulated in a non-phytotoxic solvent mixture which included a surfactant. At the same time, plants selected from these crop and weed species were planted in pots containing a growing medium comprising spaghnum peat moss, vermiculite, wetting agent and starter nutrients and treated with postemergence applications of some of the test chemicals formulated in the same manner. Plants ranged in height from 2 to 18 cm for postemergence treatments (1- to 4-leaf stage).
(§2) Treated plants and controls were maintained in a greenhouse for 14 to 21 days, after which time all species were compared to controls and visually evaluated. Plant response ratings, summarized in Table E, are based on a scale of 0 to 100 where 0 is no effect and 100 is complete control. A dash (-) response means no test result.

[2] = tested on: goosegrass (Eleusine indica); assay: Test E pre-/postemergence: goosegrass; conditions: Preemergence, scale 0 to 100
Description: as §1, §2

[3] = tested on: barnyardgrass (Echinochloa crus-galli); assay: Test E pre-/postemergence: barnyardgrass; conditions: scale 0 to 100
Description: as §1, §2

[4] = tested on: waterhemp (common waterhemp, Amaranthus rudis); assay: Test E pre-/postemergence: waterhemp; conditions: scale 0 to 100
Description: as §1, §2

Row | SMILES | Plant response rating: Poinsettia, Wild ([1]; Preemergence, 8 g ai/ha) | Plant response rating: Poinsettia, Wild ([1]; Preemergence, 16 g ai/ha) | Plant response rating: Poinsettia, Wild ([1]; Preemergence, 31 g ai/ha) | Plant response rating: Poinsettia, Wild ([1]; Preemergence, 62 g ai/ha) | Plant response rating: Poinsettia, Wild ([1]; Preemergence, 125 g ai/ha) | Plant response rating: Goosegrass ([2]; 8 g ai/ha) | Plant response rating: Goosegrass ([2]; 16 g ai/ha) | Plant response rating: Goosegrass ([2]; 31 g ai/ha) | Plant response rating: Goosegrass ([2]; 62 g ai/ha) | Plant response rating: Goosegrass ([2]; 125 g ai/ha) | Plant response rating: Barnyardgrass ([3]; Preemergence, 8 g ai/ha) | Plant response rating: Barnyardgrass ([3]; Preemergence, 16 g ai/ha) | Plant response rating: Barnyardgrass ([3]; Preemergence, 31 g ai/ha) | Plant response rating: Barnyardgrass ([3]; Preemergence, 62 g ai/ha) | Plant response rating: Barnyardgrass ([3]; Preemergence, 125 g ai/ha) | Plant response rating: Waterhemp ([4]; Preemergence, 8 g ai/ha) | Plant response rating: Waterhemp ([4]; Preemergence, 16 g ai/ha) | Plant response rating: Waterhemp ([4]; Preemergence, 31 g ai/ha) | Plant response rating: Waterhemp ([4]; Preemergence, 62 g ai/ha) | Plant response rating: Waterhemp ([4]; Preemergence, 125 g ai/ha) | also measured
1 | Cc1nn(-c2ccc(F)cc2)nc1Cc1ccnc(C(F)(F)F)c1 [Compound 16, 4-[[2-(4-fluorophenyl)-5-methyl-2H-1,2,3-triazol-4-yl]methyl]-2-(trifluoromethyl)pyridine] | 0 | 0 | 20 | 40 | 98 | 40 | 40 | 98 | 100 | 100 | 0 | 10 | 50 | 98 | 98 | 60 | 70 | 100 | 100 | 100 | –
2 | Cc1nn(-c2ccc(C(F)(F)F)cc2)nc1Cc1ccnc(C(F)(F)F)c1 [Compound 47, 4-[[5-methyl-2-[4-(trifluoromethyl)phenyl]-2H-1,2,3-triazol-4-yl]methyl]-2-(trifluoromethyl)pyridine] | – | 0 | 25 | 40 | 65 | – | 100 | 100 | – | 100 | – | 5 | 30 | 85 | 100 | – | 100 | 100 | 100 | 100 | Plant response rating: Poinsettia, Wild ([1]; Postemergence, 250 g ai/ha): 100; Plant response rating: Poinsettia, Wild ([1]; Postemergence, 16 g ai/ha): 75; Plant response rating: Poinsettia, Wild ([1]; Postemergence, 31 g ai/ha): 75; Plant response rating: Poinsettia, Wild ([1]; Postemergence, 62 g ai/ha): 90; Plant response rating: Poinsettia, Wild ([1]; Postemergence, 125 g ai/ha): 98; Plant response rating: Poinsettia, Wild ([1]; Preemergence, 250 g ai/ha): 100; Plant response rating: Goosegrass ([2]; 250 g ai/ha): 100; Plant response rating: Barnyardgrass ([3]; Postemergence, 250 g ai/ha): 60; Plant response rating: Barnyardgrass ([3]; Postemergence, 16 g ai/ha): 30; Plant response rating: Barnyardgrass ([3]; Postemergence, 31 g ai/ha): 30; Plant response rating: Barnyardgrass ([3]; Postemergence, 62 g ai/ha): 40; Plant response rating: Barnyardgrass ([3]; Postemergence, 125 g ai/ha): 45; Plant response rating: Barnyardgrass ([3]; Preemergence, 250 g ai/ha): 100; Plant response rating: Waterhemp ([4]; Postemergence, 250 g ai/ha): 95; Plant response rating: Waterhemp ([4]; Postemergence, 16 g ai/ha): 60; Plant response rating: Waterhemp ([4]; Postemergence, 31 g ai/ha): 70; Plant response rating: Waterhemp ([4]; Postemergence, 62 g ai/ha): 80; Plant response rating: Waterhemp ([4]; Postemergence, 125 g ai/ha): 85; Plant response rating: Waterhemp ([4]; Preemergence, 250 g ai/ha): 100
3 | Cc1nn(-c2ccc(F)cc2)nc1Oc1ccnc(C(F)(F)F)c1 [Compound 129, 4-[[2-(4-fluorophenyl)-5-methyl-2H-1,2,3-triazol-4-yl]oxy]-2-(trifluoromethyl)pyridine] | 0 | 0 | 0 | 0 | 25 | 40 | 40 | 50 | 60 | 100 | 0 | 0 | 5 | 10 | 35 | 20 | 35 | 80 | 100 | 100 | –
